Assays:
KPC-2 [1] = target: T1, KPC-2 (Klebsiella pneumoniae, UniProt Q9F663); format: biochemical
KPC-2 [2] = target: T1, KPC-2; format: biochemical; remark: listed apart in the source

T1 sequence (Q9F663 25-293 limits assumed): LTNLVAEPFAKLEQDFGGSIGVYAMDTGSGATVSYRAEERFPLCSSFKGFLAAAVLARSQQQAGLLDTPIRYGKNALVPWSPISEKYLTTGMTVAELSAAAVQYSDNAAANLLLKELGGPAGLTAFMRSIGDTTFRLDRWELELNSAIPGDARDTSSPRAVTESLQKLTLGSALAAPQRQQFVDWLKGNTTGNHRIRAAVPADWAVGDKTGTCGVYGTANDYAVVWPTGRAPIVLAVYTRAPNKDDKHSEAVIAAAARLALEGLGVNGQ

Structure (SMILES) | hydrolysis progress curves at 300 nm, 30 nM purified enzyme, 50 μM meropenem (KPC-2 [1]) | steady-state hydrolysis kinetics (Michaelis-Menten), purified enzyme (KPC-2 [2])
C[C@@H](O)[C@H]1C(=O)N2C(C(=O)O)=C(S[C@@H]3CN[C@H](C(=O)N(C)C)C3)[C@H](C)[C@H]12 [meropenem] | Compared with KPC-2, catalytic efficiencies of KPC-87 for nitrocefin and meropenem decreased sharply | –
O=C(Cc1cccs1)N[C@@H]1C(=O)N2C(C(=O)O)=C(/C=C/c3ccc([N+](=O)[O-])cc3[N+](=O)[O-])CS[C@H]12 [nitrocefin] | – | Compared with KPC-2, catalytic efficiencies of KPC-87 for nitrocefin and meropenem decreased sharply

Reference: paper PMC12125794 (Annals of Clinical Microbiology and Antimicrobials, 2025)
